Source: patent US9453014B2, “Cyclic amide derivatives as inhibitors of 11-β-hydroxysteroid dehydrogenase and uses thereof” (CONNEXIOS LIFE SCIENCES PVT. LTD., priority 2011, dated 2016)

Molecular target: T1, human full length HSD11 β 1 (Homo sapiens, UniProt P28845)
T1 construct: transient expression of human full length HSD11 β 1 expression vector; host or cells: CHO cells (transient transfection)
Experiment: In Vitro HSD11β1 Inhibition Assay
Type: cell-based
Conditions: CHO cells transiently expressing human HSD11β1; 200 nM cortisone+500 uM NADPH overnight; cortisone to cortisol by LC/MS-MS; read-out: 11βHSD1 (IC50)
Description: In Vitro HSD11β1 Inhibition Assay:
CHO cells were maintained in Dulbecco's modified Eagle's medium/nutrient mixture F-12 containing 5% fetal bovine serum (v/v) and 2 mM glutamine. Cells were cultured at 37° C. with 5% CO2. For transient expression of human full length HSD11 β 1 expression vector (OriGene Technologies), cells were seeded at a density of 2×10^5 cells/well in a 6-well plate. Transfection was done using Turbofectin8 reagent (OriGene Technologies), according to the protocol provided with the reagent. After 24 hours post-transfection, cells were trypsinized and pooled together before they were re-seeding to 96-well plate at a density of 40000 cells/well. 24 hours after re-seeding, cells were incubated with 200 nM cortisone+500 uM NADPH (or along with small molecule inhibitors) overnight. The enzymatic activity or inhibition of enzyme activity was measured by estimating the conversion of cortisone to cortisol by LC/MS-MS method. The IC50 in nM was calculated from an 8 point log scale of concentration versus inhibition.

T1 sequence (P28845 whole entry): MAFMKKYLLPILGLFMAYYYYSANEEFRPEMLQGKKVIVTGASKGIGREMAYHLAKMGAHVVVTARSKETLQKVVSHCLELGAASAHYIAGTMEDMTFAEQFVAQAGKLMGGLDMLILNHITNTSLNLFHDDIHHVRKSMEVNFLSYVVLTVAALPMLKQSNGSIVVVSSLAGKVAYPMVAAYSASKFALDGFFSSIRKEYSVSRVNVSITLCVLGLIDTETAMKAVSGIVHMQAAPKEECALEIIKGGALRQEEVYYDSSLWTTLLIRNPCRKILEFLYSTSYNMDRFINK

SMILES | IC50
CC(CC(=O)N1CCCC2C(C(=O)O)CCCC21)c1cn(C)c2cccc(C3CC3)c12 (single isomer, unassigned) [Compound 212, 1-[3-(4-cyclopropyl-1-methyl-1H-indol-3-yl)butanoyl]decahydroquinoline-5-carboxylic acid] | > 250 nM
CC(CC(=O)N1CCCC2C(C(=O)O)CCCC21)c1cn(C)c2cccc(C3CC3)c12 (single isomer, unassigned) [Compound 213, 1-[3-(4-cyclopropyl-1-methyl-1H-indol-3-yl)butanoyl]decahydroquinoline-5-carboxylic acid] | > 250 nM
CC(CC(=O)N1CCCC2C(C(=O)O)CCCC21)c1cn(C)c2cccc(C3CC3)c12 (single isomer, unassigned) [Compound 214, 1-[3-(4-cyclopropyl-1-methyl-1H-indol-3-yl)butanoyl]decahydroquinoline-5-carboxylic acid] | < 100 nM
CC(C)C(CC(=O)N1CCCC2(C)CCCCC12)c1c[nH]c2cccc(F)c12 (single isomer, unassigned) [Example 115, 3-(4-fluoro-1H-indol-3-yl)-4-methyl-1-(4a-methyloctahydroquinolin-1(2H)-yl)pentan-1-one] | > 250 nM
CC(C)C(CC(=O)N1CCCC2(C)CCCCC12)c1c[nH]c2cccc(F)c12 (single isomer, unassigned) [Example 116, 3-(4-fluoro-1H-indol-3-yl)-4-methyl-1-(4a-methyloctahydroquinolin-1(2H)-yl)pentan-1-one] | > 250 nM
CC(C)C(CC(=O)N1CCCC2CCCCC21)c1c[nH]c2ccccc12 (single isomer, unassigned) [Example 117, 3-(1H-indol-3-yl)-4-methyl-1-(octahydroquinolin-1(2H)-yl)pentan-1-one] | < 100 nM
CC(C)C(CC(=O)N1CCCC2CCCCC21)c1c[nH]c2ccccc12 (single isomer, unassigned) [Example 118, 3-(1H-indol-3-yl)-4-methyl-1-(octahydroquinolin-1(2H)-yl)pentan-1-one] | < 100 nM
CC(CC(=O)N1CCCC2CCCCC21)c1c[nH]c2ccccc12 (single isomer, unassigned) [Example 119, 3-(1H-indol-3-yl)-1-(octahydroquinolin-1(2H)-yl)butan-1-one] | < 100 nM
CC(CC(=O)N1CCCC2CCCCC21)c1c[nH]c2ccccc12 (single isomer, unassigned) [Example 120, 3-(1H-indol-3-yl)-1-(octahydroquinolin-1(2H)-yl)butan-1-one] | < 100 nM
CC(CC(=O)N1CCCC2CCCCC21)c1c[nH]c2cccc(F)c12 (single isomer, unassigned) [Example 122, 3-(4-fluoro-1H-indol-3-yl)-1-(octahydroquinolin-1(2H)-yl)butan-1-one] | < 100 nM
CC(CC(=O)N1CCCC2CCCCC21)c1c[nH]c2cccc(F)c12 (single isomer, unassigned) [Example 123, 3-(4-fluoro-1H-indol-3-yl)-1-(octahydroquinolin-1(2H)-yl)butan-1-one] | < 100 nM
CC(CC(=O)N1CCCC2CCCCC21)c1c[nH]c2ccccc12 (single isomer, unassigned) [Example 124, 3-(1H-indol-3-yl)-1-(octahydroquinolin-1(2H)-yl)butan-1-one] | 100 to 150 nM
CC(CC(=O)N1CCCC2CCCCC21)c1c[nH]c2ccccc12 (single isomer, unassigned) [Example 125, 3-(1H-indol-3-yl)-1-(octahydroquinolin-1(2H)-yl)butan-1-one] | < 100 nM
CC(CC(=O)N1CCOC2CCCCC21)c1c[nH]c2cccc(F)c12 (single isomer, unassigned) [Example 137, 3-(4-fluoro-1H-indol-3-yl)-1-(octahydro-4H-1,4-benzoxazin-4-yl)butan-1-one] | 100 to 150 nM
CC(CC(=O)N1CCOC2CCCCC21)c1c[nH]c2cccc(F)c12 (single isomer, unassigned) [Example 138, 3-(4-fluoro-1H-indol-3-yl)-1-(octahydro-4H-1,4-benzoxazin-4-yl)butan-1-one] | 150 to 200 nM
CC(CC(=O)N1CCO[C@H]2CCCCC21)c1c[nH]c2cccc(F)c12 (single isomer, unassigned) [Example 139, 3-(4-fluoro-1H-indol-3-yl)-1-[cis-(4a,8a)-octahydro-4H-1,4-benzoxazin-4-yl]butan-1-one] | 100 to 150 nM
CC(CC(=O)N1CCO[C@H]2CCCCC21)c1c[nH]c2cccc(F)c12 (single isomer, unassigned) [Example 140, 3-(4-fluoro-1H-indol-3-yl)-1-[cis-(4a,8a)-octahydro-4H-1,4-benzoxazin-4-yl]butan-1-one] | < 100 nM
CC(CC(=O)N1CCCC2CCCCC21)c1c[nH]c2ncccc12 (single isomer, unassigned) [Example 144, 1-(octahydroquinolin-1(2H)-yl)-3-(1H-pyrrolo[2,3-b]pyridin-3-yl)butan-1-one] | > 250 nM
CC(CC(=O)N1CCCC2CCCCC21)c1c[nH]c2ncccc12 (single isomer, unassigned) [Example 145, 1-(octahydroquinolin-1(2H)-yl)-3-(1H-pyrrolo[2,3-b]pyridin-3-yl)butan-1-one] | < 100 nM

Second part, the compound after the results:

IC50 | SMILES
< 100 nM | O=C(O)C1CCCC2C1CCCN2C(=O)CC(c1cccs1)c1c[nH]c2cccc(Cl)c12 (single isomer, unassigned) [Compound 218, 1-[3-(4-chloro-1H-indol-3-yl)-3-(thiophen-2-yl)propanoyl]decahydroquinoline-5-carboxylic acid]
> 250 nM | O=C(O)C1CCCC2C1CCCN2C(=O)CC(c1cccs1)c1c[nH]c2cccc(Cl)c12 (single isomer, unassigned) [Compound 219, 1-[3-(4-chloro-1H-indol-3-yl)-3-(thiophen-2-yl)propanoyl]decahydroquinoline-5-carboxylic acid]
100 to 150 nM | CC(CC(=O)N1CCCC2C(C(=O)O)CCCC21)c1c[nH]c2cccc(-c3ccco3)c12 (single isomer, unassigned) [Compound 223, 1-{3-[4-(furan-2-yl)-1H-indol-3-yl]butanoyl}decahydroquinoline-5-carboxylic acid]
< 100 nM | CC(CC(=O)N1CCCC2C(C(=O)O)CCCC21)c1c[nH]c2cccc(-c3ccco3)c12 (single isomer, unassigned) [Compound 224, 1-{3-[4-(furan-2-yl)-1H-indol-3-yl]butanoyl}decahydroquinoline-5-carboxylic acid]
< 100 nM | O=C(O)C1CCN(C(=O)CC(c2ccc(F)cc2)c2c[nH]c3cccc(F)c23)C2CCCCC12 (single isomer, unassigned) [Compound 225, 1-[3-(4-fluoro-1H-indol-3-yl)-3-(4-fluorophenyl)propanoyl]decahydroquinoline-4-carboxylic acid]
> 250 nM | O=C(O)C1CCN(C(=O)CC(c2ccc(F)cc2)c2c[nH]c3cccc(F)c23)C2CCCCC12 (single isomer, unassigned) [Compound 226, 1-[3-(4-fluoro-1H-indol-3-yl)-3-(4-fluorophenyl)propanoyl]decahydroquinoline-4-carboxylic acid]
< 100 nM | CC(CC(=O)N1CCCC2C(C(=O)O)CCCC21)c1c[nH]c2cccc(-c3ccc(F)o3)c12 (single isomer, unassigned) [Compound 248, 1-{3-[4-(5-fluorofuran-2-yl)-1H-indol-3-yl]butanoyl}decahydroquinoline-5-carboxylic acid]
200 to 250 nM | CC(CC(=O)N1CCCC2C(C(=O)O)CCCC21)c1c[nH]c2cccc(-c3ccc(F)o3)c12 (single isomer, unassigned) [Compound 249, 1-{3-[4-(5-fluorofuran-2-yl)-1H-indol-3-yl]butanoyl}decahydroquinoline-5-carboxylic acid]
< 100 nM | CC(CC(=O)N1CCCC2C(C(=O)O)CCCC21)c1c[nH]c2cccc(-c3ccc(F)o3)c12 (single isomer, unassigned) [Compound 250, 1-{3-[4-(5-fluorofuran-2-yl)-1H-indol-3-yl]butanoyl}decahydroquinoline-5-carboxylic acid]
< 100 nM | CC(CC(=O)N1CCCC2C(C(=O)O)CCCC21)c1c[nH]c2cccc(-c3ccc(F)o3)c12 (single isomer, unassigned) [Compound 251, 1-{3-[4-(5-fluorofuran-2-yl)-1H-indol-3-yl]butanoyl}decahydroquinoline-5-carboxylic acid]
< 100 nM | CC(CC(=O)N1CCCC2C(C(=O)O)CCCC21)c1c[nH]c2cccc(-c3ccc(F)cc3)c12 (single isomer, unassigned) [Compound 255, 1-{3-[4-(4-fluorophenyl)-1H-indol-3-yl]butanoyl}decahydroquinoline-5-carboxylic acid]
> 250 nM | CC(CC(=O)N1CCCC2C(C(=O)O)CCCC21)c1c[nH]c2cccc(-c3ccc(F)cc3)c12 (single isomer, unassigned) [Compound 256, 1-{3-[4-(4-fluorophenyl)-1H-indol-3-yl]butanoyl}decahydroquinoline-5-carboxylic acid]
< 100 nM | O=C(O)C1CCN(C(=O)CC(c2ccccc2)c2c[nH]c3cc(F)ccc23)C2CCCCC12 (single isomer, unassigned) [Example 159, 1-[3-(6-fluoro-1H-indol-3-yl)-3-phenylpropanoyl]decahydroquinoline-4-carboxylic acid]
